Data from the NIST ThermoML archive (doi:10.1016/j.jct.2009.05.006).

Columns and labels:
[1] = excess molar enthalpy (molar enthalpy of mixing); xn = mol fraction of the nth substance listed; settings: 298.15 K, 101 kPa, Liquid, Calvet calorimetry
[2] = xn = mol fraction of the nth substance listed; settings: 298.15 K, 101 kPa, Liquid, Vibrating tube method

CCCCOC(=O)CCC [butyl butanoate] + BrCCBr
[1]
Settings	excess molar enthalpy [kJ/mol]
x1 = 0.0408	0.026
x1 = 0.0978	0.048
x1 = 0.1663	0.058
x1 = 0.2361	0.051
x1 = 0.2997	0.032
x1 = 0.3488	0.015
x1 = 0.4085	-0.002
x1 = 0.4847	-0.027
x1 = 0.5816	-0.048
x1 = 0.7159	-0.054
x1 = 0.8632	-0.037
x1 = 0.9347	-0.022

BrCCBr [1,2-dibromoethane] + CCCCOC(=O)CC
[1]
Settings	excess molar enthalpy [kJ/mol]
x2 = 0.0417	0.022
x2 = 0.0966	0.031
x2 = 0.1618	0.026
x2 = 0.2302	0.008
x2 = 0.2936	-0.02
x2 = 0.3529	-0.05
x2 = 0.4091	-0.075
x2 = 0.4511	-0.092
x2 = 0.4917	-0.101
x2 = 0.5694	-0.111
x2 = 0.6594	-0.11
x2 = 0.7605	-0.096
x2 = 0.8773	-0.063

BrCCCCBr [1,4-dibromobutane] + CCCCOC(=O)CC
Settings	excess molar enthalpy [kJ/mol]	mass density [kg/m3]
[1], x2 = 0.0509	0.024	–
[1], x2 = 0.1183	0.026	–
[1], x2 = 0.196	0.012	–
[1], x2 = 0.275	-0.01	–
[1], x2 = 0.3518	-0.032	–
[1], x2 = 0.4473	-0.055	–
[1], x2 = 0.4843	-0.063	–
[1], x2 = 0.5517	-0.068	–
[1], x2 = 0.6323	-0.071	–
[1], x2 = 0.7319	-0.067	–
[1], x2 = 0.8302	-0.052	–
[1], x2 = 0.9193	-0.036	–
[2], x1 = 0.0993	–	1702.4
[2], x1 = 0.1484	–	1647.38
[2], x1 = 0.2006	–	1590.44
[2], x1 = 0.2485	–	1539.57
[2], x1 = 0.307	–	1478.88
[2], x1 = 0.3593	–	1426.19
[2], x1 = 0.4138	–	1372.46
[2], x1 = 0.4767	–	1312.32
[2], x1 = 0.5324	–	1260.38
[2], x1 = 0.5968	–	1201.95
[2], x1 = 0.6549	–	1150.66
[2], x1 = 0.721	–	1093.83
[2], x1 = 0.787	–	1038.79
[2], x1 = 0.8544	–	984.01
[2], x1 = 0.9302	–	924.33

BrCCCCBr [1,4-dibromobutane] + CCCCOC=O
Settings	excess molar enthalpy [kJ/mol]	mass density [kg/m3]
[1], x2 = 0.0646	0.074	–
[1], x2 = 0.1478	0.132	–
[1], x2 = 0.2392	0.177	–
[1], x2 = 0.3291	0.204	–
[1], x2 = 0.4058	0.211	–
[1], x2 = 0.4726	0.204	–
[1], x2 = 0.5295	0.195	–
[1], x2 = 0.5817	0.182	–
[1], x2 = 0.6425	0.162	–
[1], x2 = 0.7078	0.138	–
[1], x2 = 0.7787	0.106	–
[1], x2 = 0.8648	0.069	–
[1], x2 = 0.9404	0.028	–
[2], x2 = 0.0702	–	1756.08
[2], x2 = 0.1221	–	1708.91
[2], x2 = 0.1836	–	1652.89
[2], x2 = 0.241	–	1600.45
[2], x2 = 0.3018	–	1544.61
[2], x2 = 0.4249	–	1431.07
[2], x2 = 0.4765	–	1383.26
[2], x2 = 0.5374	–	1326.55
[2], x2 = 0.6529	–	1218.52
[2], x2 = 0.7677	–	1110.31
[2], x2 = 0.8248	–	1056.19
[2], x2 = 0.8824	–	1001.42
[2], x2 = 0.9353	–	950.88

CCCCOC(=O)CCC [butyl butanoate] + BrCCCCCCBr
Settings	excess molar enthalpy [kJ/mol]	mass density [kg/m3]
[1], x1 = 0.0751	0.021	–
[1], x1 = 0.1669	0.029	–
[1], x1 = 0.2609	0.028	–
[1], x1 = 0.3471	0.019	–
[1], x1 = 0.418	0.002	–
[1], x1 = 0.4834	-0.017	–
[1], x1 = 0.5223	-0.033	–
[1], x1 = 0.5361	-0.036	–
[1], x1 = 0.5892	-0.044	–
[1], x1 = 0.6544	-0.048	–
[1], x1 = 0.7475	-0.048	–
[1], x1 = 0.8287	-0.04	–
[1], x1 = 0.9253	-0.021	–
[2], x1 = 0.0615	–	1551.3
[2], x1 = 0.114	–	1509.95
[2], x1 = 0.1733	–	1463.7
[2], x1 = 0.2207	–	1427.05
[2], x1 = 0.2782	–	1383.1
[2], x1 = 0.3299	–	1343.86
[2], x1 = 0.3955	–	1294.64
[2], x1 = 0.4505	–	1253.75
[2], x1 = 0.5089	–	1210.69
[2], x1 = 0.5674	–	1168
[2], x1 = 0.6293	–	1123.3
[2], x1 = 0.68	–	1087.08
[2], x1 = 0.7477	–	1039.01
[2], x1 = 0.8082	–	996.64
[2], x1 = 0.8735	–	951.23
[2], x1 = 0.9358	–	908.5
